Consider 9 compounds from US5298652A, “N-substituted glycines, inhibitors of phospholipase A2” (Hoffmann-La Roche Inc., priority 1992, dated 1994).

The structures appear in SMILES notation.

The assay has as its system paw edema induced by phospholipase A2 from Naja naja venom. Kind of assay: Phospholipase A2 rat paw edema. Format: in vivo, Lewis rats. Conditions: 30 mg/kg ip, 1 hr prior to PLA2, 2 hr, read-out: % Inhib of PLA2 Paw Edema 2 hr 30 mg/kg ip.
Turning to `CCCCCCCCCCOc1cc(OCCCCCCCCCC)cc(C(=O)C(=O)N(CC(=O)O)CC(=O)O)c1` [Example 73, N-(Carboxymethyl)-N-[[3,5-bis(decyloxy)phenyl]-1,2-dioxoethyl]glycine], the inhibition in vivo at 30 mg/kg was 32%.
With `CCCCCCCCCCCCCC(=O)Nc1cc(NC(=O)CCCCCCCCCCCCC)cc(C(=O)N(CC(=O)O)CC(=O)O)c1` [Example 56, N-(Carboxymethyl)-N-[3,5-bis(1-oxotetradecylamino)benzoyl]glycine] the figure was 57%.
Take `CCCCCCCCCCCCCCCCCCOc1ccc(O)c(C(=O)N(CC(=O)O)CC(=O)O)c1` [Example 62, N-(carboxymethyl)-N-[2-hydroxy-5-(octadecyloxy)benzoyl]glycine]: the inhibition in vivo at 30 mg/kg turned out to be 60%.
On to `CCCCCCCCCCOc1cc(OCCCCCCCCCC)cc(C(=O)N(CC(=O)O)CC(=O)O)c1` [Example 11, N-(Carboxymethyl)-N-[3,5-bis(decyloxy)benzoyl]glycine], for which the inhibition in vivo at 30 mg/kg came to 0%.
Turning to `CCCCCCCCCCCCCCCCCCOc1cc(OCCOCCOCCOCC)cc(C(=O)N(CC(=O)O)CC(=O)O)c1` [Example 48, N-(carboxymethyl)-N-[3-[2-[2-(2-ethoxyethoxy)ethoxy]ethoxy]-(5-octadecyloxy)benzoyl]glycine], the inhibition in vivo at 30 mg/kg was 43%.
In the case of `CCCCCCCCCCCCCCCCCCOc1cc(OCCCOc2cccc(N)c2)cc(C(=O)N(CC(=O)O)CC(=O)O)c1` [Example 23, N-(Carboxymethyl)-N-[3-[3-(3-aminophenoxy)propoxy]-5-(octadecyloxy)benzoyl]glycine], the inhibition in vivo at 30 mg/kg is 40%.
With `CCCCCCCCCCCCCCCCCCOc1cc(OCCCOc2cccc([N+](=O)[O-])c2)cc(C(=O)N(CC(=O)O)CC(=O)O)c1` [Example 22, N-(Carboxymethyl)-N-[3-[3-(3-nitrophenoxy)propoxy]-5-(octadecyloxy)benzoyl]glycine], the inhibition in vivo at 30 mg/kg was found to be 64%.
As for `CCCCCCCCCCCCCCCCCCOc1ccc(C(=O)C(=O)N(CC(=O)O)CC(=O)O)cc1` [Example 65, N-(Carboxymethyl)-N-[2-[4-(octadecyloxy)phenyl]-1,2-dioxoethyl]glycine], the figure is 71%; as for `CCCCCCCCCCCCCCCCCCOc1cccc(C(=O)N(CC(=O)O)CC(=O)O)c1` [Example 4, N-(Carboxymethyl)-N-[3-(octadecyloxy)benzoyl]glycine], 35%.
